Where two headings read alike, the source gives them in different places.
Legend:
[1] = thermodynamic stability of polymorphs (DSC comparison); type: physicochemical
Method: Pipindoxifene hydrochloride monohydrate can also exist as form I polymorph. Sample data for certain physical properties are compared for form I and form II polymorphs below in Table 2.
DSC measurements were carried out in both sealed pan and vented pan at a scan rate of 10° C./min from 25° C. to 200° C. under nitrogen purge using a Pyris I DSC from Perkin-Elmer.

[2] = tested on: tamoxifen-sensitive cells lines; conditions: other studies; cited from earlier work
[3] = tested on: tamoxifen-resistent MCF-7 breast cancer xenografts; conditions: recent preclinical studies; cited from earlier work
uterus = conditions: tissue selective estrogenic effects; cited from earlier work

Q: Which “thermodynamic stability of crystalline polymorph” value ([1]; form I versus form II, from Table 2 DSC data, hydrochloride monohydrate) does the source give for `Cc1c(-c2ccc(O)cc2)n(Cc2ccc(OCCN3CCCCC3)cc2)c2ccc(O)cc12.Cl` [Form I, pipindoxifene hydrochloride monohydrate] here?
A: thermodynamically more stable than form II

Q: For `Cc1c(-c2ccc(O)cc2)n(Cc2ccc(OCCN3CCCCC3)cc2)c2ccc(O)cc12.Cl` [form II, pipindoxifene hydrochloride monohydrate], which “thermodynamic stability of crystalline polymorph” value [1] is on record?
A: Less thermodynamically stable

Q: Which results are given for `Cc1c(-c2ccc(O)cc2)n(Cc2ccc(OCCN3CCCCC3)cc2)c2ccc(O)cc12.Cl` [pipindoxifene, 2-(4-hydroxyphenyl)-3-methyl-1-[4-(2-piperidin-1-ylethoxy)-benzyl]-1H-indol-5-ol hydrochloride]?
A: effectiveness in tamoxifen-sensitive cell lines [2]: effectiveness; growth of tamoxifen-resistant MCF-7 breast cancer xenografts [3]: inhibited the growth; uterotropic activity (uterus): little or no uterotropic activity
